Experimental findings from ChEMBL document CHEMBL3525899, “Identification of the cytochrome P450 and other enzymes involved in the in vitro oxidative metabolism of a novel antidepressant, Lu AA21004” (Drug Metab Dispos, 2012) are described below.

Each structure is given as a SMILES string.

The target of data set [1] is T1, Cytochrome P450 2A6 (Homo sapiens, UniProt P11509).
T1 sequence (P11509 whole entry): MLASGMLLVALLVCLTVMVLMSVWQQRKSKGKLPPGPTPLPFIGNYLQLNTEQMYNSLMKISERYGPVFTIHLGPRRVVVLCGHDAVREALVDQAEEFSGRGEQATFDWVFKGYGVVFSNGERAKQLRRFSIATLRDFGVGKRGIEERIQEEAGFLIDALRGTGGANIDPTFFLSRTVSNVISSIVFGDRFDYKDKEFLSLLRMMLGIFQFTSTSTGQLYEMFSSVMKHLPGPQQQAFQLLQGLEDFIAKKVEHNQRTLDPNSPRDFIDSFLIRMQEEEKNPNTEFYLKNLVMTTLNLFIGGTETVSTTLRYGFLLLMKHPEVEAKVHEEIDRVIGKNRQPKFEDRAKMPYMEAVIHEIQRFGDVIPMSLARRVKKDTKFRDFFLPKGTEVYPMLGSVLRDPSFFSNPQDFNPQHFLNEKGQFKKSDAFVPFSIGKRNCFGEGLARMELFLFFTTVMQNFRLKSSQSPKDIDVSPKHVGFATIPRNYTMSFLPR
The data set is described as follows: Activity of human recombinant CYP2A6 expressed in microsomes isolated from human AHH-1 cells assessed as enzyme-mediated 1-(2-(2,4-dimethylphenylsulfinyl)phenyl)piperazine formation at 8 to 50 uM after 120 mins by HPLC/MS-MS analysis in presence of NADPH regenerating system with NADP+. The class given is ADME, cell-free. The conditions noted are these: 2 h.

The target in data set [2] is T2, Cytochrome P450 2D6 (Homo sapiens, UniProt P10635). The data set is described as follows: Activity of human recombinant CYP2D6 expressed in microsomes isolated from human AHH-1 cells assessed as enzyme-mediated (3-methyl-4-(2-(piperazin-1-yl)phenylthio)phenyl)methanol formation at 8 to 50 uM after 120 mins by HPLC/MS-MS analysis in presence of NADPH regenerating system with NADP+. The data set is classed as ADME, cell-free. Conditions: 2 h.

Data set [3] concerns the target T2, Cytochrome P450 2D6. The data set is described as follows: Activity of human recombinant CYP2D6 expressed in microsomes isolated from human AHH-1 cells assessed as enzyme-mediated 3-methyl-4-(2-(piperazin-1-yl)phenylthio)benzoic acid formation at 8 to 50 uM after 120 mins by HPLC/MS-MS analysis in presence of NADPH regenerating system with NADP+. The data set is classed as ADME, cell-free. Conditions: 2 h.

The subject of data set [4] is Liver microsome. Briefly: Drug metabolism in pooled human liver microsomes assessed as formation of (3-methyl-4-(2-(piperazin-1-yl)phenylthio)phenyl)methanol per mg of protein after 30 mins by Michaelis-Menten plot analysis in presence of NADPH regenerating system with NADP+. The data set is classed as ADME. Conditions: 0.5 h.
Data set [5] relates to Liver microsome. The data set is described as follows: Intrinsic clearance in pooled human liver microsomes assessed as Vmax(app)/Km(app) for formation of (3-methyl-4-(2-(piperazin-1-yl)phenylthio)phenyl)methanol per mg of protein after 30 mins by Michaelis-Menten plot analysis in presence of NADPH regenerating system with NADP+. The class given is ADME. The conditions noted are these: 0.5 h. On the technique in general: Microsomes from liver hold many membrane-bound enzymes, among them those of drug oxidation.

Data set [6] has as its system Liver microsome. The data set is described as follows: Drug metabolism in pooled human liver microsomes assessed as formation of 1-(2-(2,4-dimethylphenylsulfinyl)phenyl)piperazine at 100 uM after 30 to 180 mins by HPLC/MS-MS analysis in presence of NADPH regenerating system with NADP+. The data set is classed as ADME.
Data set [7] concerns the target T3, Cytochrome P450 2C9 (Homo sapiens, UniProt P11712). Briefly: Activity of human recombinant CYP2C9 expressed in microsomes isolated from human AHH-1 cells assessed as enzyme-mediated 3-(2,4-dimethylphenylthio)-4-(piperazin-1-yl)phenol formation at 8 to 50 uM after 120 mins by HPLC/MS-MS analysis in presence of NADPH regenerating system with NADP+. Conditions: 2 h. The data set is classed as ADME, cell-free.

Data set [8] addresses T4, Cytochrome P450 2C19 (Homo sapiens, UniProt P33261). The data set is described as follows: Activity of human recombinant CYP2C19 expressed in microsomes isolated from human AHH-1 cells assessed as enzyme-mediated 4-(2-(2,4-dimethylphenylthio)phenyl)piperazin-1-ol formation at 8 to 50 uM after 120 mins by HPLC/MS-MS analysis in presence of NADPH regenerating system with NADP+. The data set is classed as ADME, cell-free. The conditions noted are these: 2 h.

The target in data set [9] is T5, Cytochrome P450 2B6 (Homo sapiens, UniProt P20813).
T5 sequence (P20813 whole entry): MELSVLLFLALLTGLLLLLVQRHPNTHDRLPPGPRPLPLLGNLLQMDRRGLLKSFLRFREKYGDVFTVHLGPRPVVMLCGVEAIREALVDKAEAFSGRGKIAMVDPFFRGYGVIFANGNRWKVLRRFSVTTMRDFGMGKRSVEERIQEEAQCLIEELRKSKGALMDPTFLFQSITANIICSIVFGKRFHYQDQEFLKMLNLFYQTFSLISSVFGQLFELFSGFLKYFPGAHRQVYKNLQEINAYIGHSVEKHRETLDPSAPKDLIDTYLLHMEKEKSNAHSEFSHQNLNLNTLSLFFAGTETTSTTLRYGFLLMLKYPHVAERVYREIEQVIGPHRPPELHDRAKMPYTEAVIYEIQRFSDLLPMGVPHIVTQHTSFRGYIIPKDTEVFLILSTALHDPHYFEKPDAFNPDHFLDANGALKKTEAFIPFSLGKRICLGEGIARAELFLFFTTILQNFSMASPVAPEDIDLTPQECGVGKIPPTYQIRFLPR
The data set is described as follows: Activity of human recombinant CYP2B6 expressed in microsomes isolated from human AHH-1 cells assessed as enzyme-mediated 3-(2,4-dimethylphenylthio)-4-(piperazin-1-yl)phenol formation at 8 to 50 uM after 120 mins by HPLC/MS-MS analysis in presence of NADPH regenerating system with NADP+. The conditions noted are these: 2 h. The class given is ADME, cell-free.

The target of data set [10] is Cytochrome P450 2E1 (Homo sapiens, UniProt P05181). The data set is described as follows: Activity of human recombinant CYP2E1 expressed in microsomes isolated from human AHH-1 cells assessed as enzyme-mediated 3-(2,4-dimethylphenylthio)-4-(piperazin-1-yl)phenol formation at 8 to 50 uM after 120 mins by HPLC/MS-MS analysis in presence of NADPH regenerating system with NADP+. The class given is ADME, cell-free. The conditions noted are these: 2 h.

Data set [11] concerns the target T5, Cytochrome P450 2B6. The data set is described as follows: Activity of human recombinant CYP2B6 expressed in microsomes isolated from human AHH-1 cells assessed as enzyme-mediated 4-(2-(2,4-dimethylphenylthio)phenyl)piperazin-1-ol formation at 8 to 50 uM after 120 mins by HPLC/MS-MS analysis in presence of NADPH regenerating system with NADP+. The data set is classed as ADME, cell-free. Conditions: 2 h.

In data set [12] the test system is Liver microsome. The data set is described as follows: Drug metabolism in phenotyped human liver microsomes assessed as formation of 3-methyl-4-(2-(piperazin-1-yl)phenylthio)benzoic acid at 8 to 50 uM after 60 mins by HPLC/MS-MS analysis in presence of NADPH regenerating system with NADP+. The class given is ADME. The conditions noted are these: 1 h.
Data set [13] deals with T4, Cytochrome P450 2C19. Briefly: Activity of human recombinant CYP2C19 expressed in microsomes isolated from human AHH-1 cells assessed as enzyme-mediated (3-methyl-4-(2-(piperazin-1-yl)phenylthio)phenyl)methanol formation at 8 to 50 uM after 120 mins by HPLC/MS-MS analysis in presence of NADPH regenerating system with NADP+. The class given is ADME, cell-free. The conditions noted are these: 2 h.

In data set [14] the target is T3, Cytochrome P450 2C9. Briefly: Activity of human recombinant CYP2C9 expressed in microsomes isolated from human AHH-1 cells assessed as enzyme-mediated (3-methyl-4-(2-(piperazin-1-yl)phenylthio)phenyl)methanol formation at 8 to 50 uM after 120 mins by HPLC/MS-MS analysis in presence of NADPH regenerating system with NADP+. The class given is ADME, cell-free. Conditions: 2 h.

For data set [15], the system named is Liver microsome. Briefly: Drug metabolism in pooled human liver microsomes assessed as formation of (3-methyl-4-(2-(piperazin-1-yl)phenylthio)phenyl)methanol after 30 mins by Michaelis-Menten plot analysis in presence of NADPH regenerating system with NADP+. Conditions: 0.5 h, read-out: Km(app). The data set is classed as ADME.

T4 sequence (P33261 whole entry): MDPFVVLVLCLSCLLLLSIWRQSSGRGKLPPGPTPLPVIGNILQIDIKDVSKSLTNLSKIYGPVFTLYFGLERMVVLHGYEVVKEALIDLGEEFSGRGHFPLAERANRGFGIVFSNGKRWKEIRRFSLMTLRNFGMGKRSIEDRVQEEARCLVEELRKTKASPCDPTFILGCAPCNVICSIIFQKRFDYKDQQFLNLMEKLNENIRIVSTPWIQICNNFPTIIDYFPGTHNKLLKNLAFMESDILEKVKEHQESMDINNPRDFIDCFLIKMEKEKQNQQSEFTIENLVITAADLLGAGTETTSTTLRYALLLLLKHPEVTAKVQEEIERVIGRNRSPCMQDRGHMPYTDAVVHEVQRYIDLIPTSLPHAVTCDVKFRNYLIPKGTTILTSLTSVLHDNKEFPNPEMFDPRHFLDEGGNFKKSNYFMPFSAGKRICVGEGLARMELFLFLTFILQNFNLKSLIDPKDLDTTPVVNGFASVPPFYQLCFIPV
T2 sequence (P10635 whole entry): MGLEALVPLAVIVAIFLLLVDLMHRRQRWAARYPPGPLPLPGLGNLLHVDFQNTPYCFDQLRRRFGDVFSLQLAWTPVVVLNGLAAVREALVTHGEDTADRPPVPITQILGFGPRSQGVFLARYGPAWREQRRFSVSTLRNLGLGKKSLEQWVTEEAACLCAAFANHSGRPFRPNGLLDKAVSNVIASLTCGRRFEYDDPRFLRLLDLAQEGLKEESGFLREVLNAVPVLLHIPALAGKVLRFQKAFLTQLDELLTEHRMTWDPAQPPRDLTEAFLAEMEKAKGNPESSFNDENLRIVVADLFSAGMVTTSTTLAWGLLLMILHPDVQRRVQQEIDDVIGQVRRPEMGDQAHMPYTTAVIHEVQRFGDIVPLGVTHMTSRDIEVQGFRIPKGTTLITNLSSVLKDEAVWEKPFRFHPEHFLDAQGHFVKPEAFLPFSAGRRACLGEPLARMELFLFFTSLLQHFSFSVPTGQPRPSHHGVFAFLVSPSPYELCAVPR
T3 sequence (P11712 whole entry): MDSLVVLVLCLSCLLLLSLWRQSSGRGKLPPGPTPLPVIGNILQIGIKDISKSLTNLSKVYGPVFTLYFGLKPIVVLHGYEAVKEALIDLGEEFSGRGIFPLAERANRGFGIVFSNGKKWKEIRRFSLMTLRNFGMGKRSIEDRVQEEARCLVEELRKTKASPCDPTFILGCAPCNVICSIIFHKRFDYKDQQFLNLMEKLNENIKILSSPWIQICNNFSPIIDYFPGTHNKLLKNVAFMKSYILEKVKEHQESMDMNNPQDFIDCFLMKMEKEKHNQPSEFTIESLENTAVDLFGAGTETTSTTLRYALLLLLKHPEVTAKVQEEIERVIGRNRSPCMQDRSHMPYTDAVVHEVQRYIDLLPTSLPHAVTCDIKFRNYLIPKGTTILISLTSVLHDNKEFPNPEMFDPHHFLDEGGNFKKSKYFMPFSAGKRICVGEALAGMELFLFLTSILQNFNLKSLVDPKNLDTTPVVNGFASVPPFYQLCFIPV
Chain of Cytochrome P450 2E1 (P05181 whole entry): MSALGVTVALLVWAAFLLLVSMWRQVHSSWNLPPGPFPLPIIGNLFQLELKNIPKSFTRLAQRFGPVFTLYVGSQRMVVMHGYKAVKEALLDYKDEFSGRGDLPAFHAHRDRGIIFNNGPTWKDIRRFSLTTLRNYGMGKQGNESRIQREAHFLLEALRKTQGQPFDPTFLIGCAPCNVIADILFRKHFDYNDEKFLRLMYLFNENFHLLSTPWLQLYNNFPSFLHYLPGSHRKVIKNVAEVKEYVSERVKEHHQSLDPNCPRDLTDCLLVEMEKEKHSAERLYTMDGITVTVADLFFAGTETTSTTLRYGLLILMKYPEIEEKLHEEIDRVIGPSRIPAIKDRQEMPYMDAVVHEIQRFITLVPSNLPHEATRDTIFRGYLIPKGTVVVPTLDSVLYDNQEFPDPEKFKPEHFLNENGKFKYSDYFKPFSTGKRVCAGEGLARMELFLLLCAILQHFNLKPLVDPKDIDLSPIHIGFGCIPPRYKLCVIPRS

For the compound `Br.Cc1ccc(Sc2ccccc2N2CCNCC2)c(C)c1` [VORTIOXETINE HYDROBROMIDE], the Drug metabolism entry in data set [1], in data set [2], in data set [3], in [6], in data set [7] and in data set [8] was “metabolite_detected” throughout. Further, the Drug metabolism result was “metabolite_not_detected” in data set [9]; “metabolite_not_detected” in [10]; “metabolite_detected” in data set [11]; “metabolite_detected” in [12]; “metabolite_detected” in data set [13]; “metabolite_detected” in [14]. In [4], the “Vmax(app)” value came out at 262 pmol/min. In addition, in [5], the Vmax/Km was 1.13 µL/min. For the same compound, the Km in data set [15] worked out at 231 µM.

Broadly, the Km is the concentration of substrate that gives half-maximal velocity.
